Laboratory results as given in ChEMBL document CHEMBL1147193, “New 5-substituted thiazolo[3,2-b][1,2,4]triazol-6-ones: synthesis and anticancer evaluation” (2007).

Assays:
Assay type in all cases: functional
OVCAR-3 = experiment: Growth inhibition of human OVCAR-3 cells after 48 hrs by SRB protein assay; settings: OVCAR-3, 48 h
OVCAR-4 = experiment: Growth inhibition of human OVCAR4 cells after 48 hrs by SRB protein assay; settings: OVCAR-4, 48 h
OVCAR-5 = experiment: Growth inhibition of human OVCAR5 cells after 48 hrs by SRB protein assay; settings: OVCAR-5, 48 h
OVCAR-8 = experiment: Growth inhibition of human OVCAR8 cells after 48 hrs by SRB protein assay; settings: OVCAR-8, 48 h
786-0 = experiment: Growth inhibition of human 786-0 cells after 48 hrs by SRB protein assay; settings: 786-0, 48 h
ACHN = experiment: Growth inhibition of human ACHN cells after 48 hrs by SRB protein assay
CAKI-1 = experiment: Growth inhibition of human CAKI1 cells after 48 hrs by SRB protein assay; settings: CAKI-1, 48 h
A549 = experiment: Growth inhibition of human A549/ATCC cells after 48 hrs by SRB protein assay; settings: A549, 48 h
IGROV-1 = experiment: Growth inhibition of human IGROV1 cells after 48 hrs by SRB protein assay; settings: IGROV-1, 48 h
CCRF-CEM = experiment: Growth inhibition of human CCRF-CEM cells after 48 hrs by SRB protein assay
SW-620 = experiment: Growth inhibition of human SW620 cells after 48 hrs by SRB protein assay; settings: SW-620, 48 h
BT-549 = experiment: Growth inhibition of human BT549 cells after 48 hrs by SRB protein assay; settings: BT-549, 48 h
Hs-578T = experiment: Growth inhibition of human HS578T cells after 48 hrs by SRB protein assay
RPMI-8226 = experiment: Growth inhibition of human RPMI8226 cells after 48 hrs by SRB protein assay; settings: RPMI-8226, 48 h
SF-268 = experiment: Anticancer activity against human SF268 cells assessed as growth of cells at 100 uM relative to untreated cells
K562 = experiment: Growth inhibition of human K562 cells after 48 hrs by SRB protein assay; settings: K562, 48 h
HOP-62 = experiment: Growth inhibition of human HOP62 cells after 48 hrs by SRB protein assay; settings: HOP-62, 48 h
HOP-92 = experiment: Growth inhibition of human HOP92 cells after 48 hrs by SRB protein assay; settings: HOP-92, 48 h
NCI-H226 = experiment: Growth inhibition of human NCI-H226 cells after 48 hrs by SRB protein assay; settings: NCI-H226, 48 h
NCI-H322M = experiment: Growth inhibition of human NCI-H322M cells after 48 hrs by SRB protein assay
NCI-H460 = experiment: Growth inhibition of human NCI-H460 cells after 48 hrs by SRB protein assay; settings: NCI-H460, 48 h
NCI-H522 = experiment: Growth inhibition of human NCI-H522 cells after 48 hrs by SRB protein assay; settings: NCI-H522, 48 h
COLO 205 = experiment: Growth inhibition of human COLO205 cells after 48 hrs by SRB protein assay; settings: COLO 205, 48 h
HCC 2998 = experiment: Growth inhibition of human HCC2998 cells after 48 hrs by SRB protein assay; settings: HCC 2998, 48 h
HCT-15 = experiment: Growth inhibition of human HCT15 cells after 48 hrs by SRB protein assay; settings: HCT-15, 48 h
HT-29 = experiment: Growth inhibition of human HT29 cells after 48 hrs by SRB protein assay; settings: HT-29, 48 h
[1] = Growth inhibition of human MALME 3M cells after 48 hrs by SRB protein assay
M14 = experiment: Growth inhibition of human M14 cells after 48 hrs by SRB protein assay; settings: M14, 48 h
SK-MEL-2 = experiment: Growth inhibition of human SK-MEL-2 cells after 48 hrs by SRB protein assay; settings: SK-MEL-2, 48 h
SK-MEL-5 = experiment: Growth inhibition of human SK-MEL-5 cells after 48 hrs by SRB protein assay; settings: SK-MEL-5, 48 h
UACC-257 = experiment: Growth inhibition of human UACC257 cells after 48 hrs by SRB protein assay; settings: UACC-257, 48 h
UACC-62 = experiment: Growth inhibition of human UACC62 cells after 48 hrs by SRB protein assay; settings: UACC-62, 48 h
RXF 393 = experiment: Growth inhibition of human RXF393 cells after 48 hrs by SRB protein assay; settings: RXF 393, 48 h
TK-10 = experiment: Growth inhibition of human TK10 cells after 48 hrs by SRB protein assay; settings: TK-10, 48 h
SN12C = experiment: Growth inhibition of human SN12C cells after 48 hrs by SRB protein assay
MCF7 = experiment: Growth inhibition of human MCF7 cells after 48 hrs by SRB protein assay; settings: MCF7, 48 h
NCI/ADR-RES = experiment: Growth inhibition of human NCI/ADR-RES cells after 48 hrs by SRB protein assay
MDA-MB-435 = experiment: Growth inhibition of human MDA-MB-435 cells after 48 hrs by SRB protein assay; settings: MDA-MB-435, 48 h
T47D = experiment: Growth inhibition of human T47D cells after 48 hrs by SRB protein assay

GI50 (OVCAR-3): 20 µM | GI50 (OVCAR-4): 31.6 µM | GI50 (OVCAR-5): 16.2 µM | GI50 (OVCAR-8): 18.2 µM | GI50 (786-0): 16.6 µM | GI50 (ACHN): 15.1 µM | GI50 (A549): 35.5 µM | GI50 (CCRF-CEM): 21.4 µM | GI50 (SW-620): 44.7 µM | GI50 (BT-549): > 100 µM | GI50 (RPMI-8226): 23.4 µM | GI50 (K562): 26.3 µM | GI50 (NCI-H226): 20 µM | GI50 (NCI-H322M): > 100 µM | GI50 (NCI-H460): > 100 µM | GI50 (NCI-H522): 20.4 µM | GI50 (COLO 205): 17.8 µM | GI50 (HCC 2998): > 100 µM | GI50 (HCT-15): 14.8 µM | GI50 (HT-29): 28.2 µM | GI50 (SK-MEL-2): 66.1 µM | GI50 (SK-MEL-5): 18.6 µM | GI50 (MCF7): 26.9 µM | GI50 (MDA-MB-435): 31.6 µM | GI50 (T47D): 18.2 µM
Compound: O=C(CC1Sc2ncnn2C1=O)Nc1ccc(Br)cc1 (configuration not stated)
TGI (OVCAR-3; read-out: Log TGI (converted)): 37.2 µM | TGI (OVCAR-4; read-out: Log TGI (converted)): > 100 µM | TGI (OVCAR-5; read-out: Log TGI (converted)): 29.5 µM | TGI (OVCAR-8; read-out: Log TGI (converted)): 38 µM | TGI (786-0; read-out: Log TGI (converted)): 30.2 µM | TGI (ACHN; read-out: Log TGI (converted)): 28.2 µM | GI50 (CAKI-1): 20.4 µM | TGI (CAKI-1; read-out: Log TGI (converted)): 43.7 µM | TGI (A549; read-out: Log TGI (converted)): > 100 µM | GI50 (IGROV-1): 34.7 µM | TGI (IGROV-1; read-out: Log TGI (converted)): > 100 µM | TGI (CCRF-CEM; read-out: Log TGI (converted)): 55 µM | TGI (SW-620; read-out: Log TGI (converted)): > 100 µM | TGI (BT-549; read-out: Log TGI (converted)): > 100 µM | GI50 (Hs-578T): 7.24 µM | TGI (Hs-578T; read-out: Log TGI (converted)): 20 µM | TGI (RPMI-8226; read-out: Log TGI (converted)): 64.6 µM | Activity (SF-268): 100% | TGI (K562; read-out: Log TGI (converted)): 79.4 µM | GI50 (HOP-62): > 100 µM | TGI (HOP-62; read-out: Log TGI (converted)): > 100 µM | GI50 (HOP-92): 22.4 µM | TGI (HOP-92; read-out: Log TGI (converted)): 49 µM | TGI (NCI-H226; read-out: Log TGI (converted)): 45.7 µM | TGI (NCI-H322M; read-out: Log TGI (converted)): > 100 µM | TGI (NCI-H460; read-out: Log TGI (converted)): > 100 µM | TGI (NCI-H522; read-out: Log TGI (converted)): 57.5 µM | TGI (COLO 205; read-out: Log TGI (converted)): 37.2 µM | TGI (HCC 2998; read-out: Log TGI (converted)): > 100 µM | TGI (HCT-15; read-out: Log TGI (converted)): 28.2 µM | TGI (HT-29; read-out: Log TGI (converted)): > 100 µM | GI50 [1]: 14.5 µM | TGI ([1]; read-out: Log TGI (converted)): 31.6 µM | GI50 (M14): 15.8 µM | TGI (M14; read-out: Log TGI (converted)): 29.5 µM | TGI (SK-MEL-2; read-out: Log TGI (converted)): > 100 µM | TGI (SK-MEL-5; read-out: Log TGI (converted)): 38.9 µM | GI50 (UACC-257): 17.4 µM | TGI (UACC-257; read-out: Log TGI (converted)): 33.1 µM | GI50 (UACC-62): > 100 µM | TGI (UACC-62; read-out: Log TGI (converted)): > 100 µM | GI50 (RXF 393): 12.9 µM | TGI (RXF 393; read-out: Log TGI (converted)): 31.6 µM | GI50 (TK-10): 17.4 µM | TGI (TK-10; read-out: Log TGI (converted)): 31.6 µM | GI50 (SN12C): 22.9 µM | TGI (SN12C; read-out: Log TGI (converted)): 63.1 µM | TGI (MCF7; read-out: Log TGI (converted)): 74.1 µM | GI50 (NCI/ADR-RES): 25.1 µM | TGI (NCI/ADR-RES; read-out: Log TGI (converted)): 70.8 µM | TGI (MDA-MB-435; read-out: Log TGI (converted)): > 100 µM | TGI (T47D; read-out: Log TGI (converted)): 45.7 µM
